Where no end group is shown, it is not given here.
System: SGC-7901 cells
Assay: MTT viability, SGC-7901 cells
Assay type: cell-based
Details: 48 h with bFGF
Experimental: In vitro anti-tumor activity of a short peptide compound P48 Hela229 (1500 cells/100 μl), B16-F10 (1000 cells/100 μl), NCI-H460 (4000 cells/100 μl) and SGC7901 (4000 cells/100 μl) cells were inoculated in 96-well plates. After incubated overnight adherently, the original medium was replaced with a Dulbecco's modified eagle medium (DMEM) containing 0.1% fetal bovine serum (FBS) or a Roswell Park Memorial Institute 1640 (RPMI-1640) medium containing 0.1% FBS, and culture was continued for 24 h. A mixture of P48 and bFGF, or bFGF alone were added into corresponding wells, and incubated for 48 h; an MTT solution (5 mg/mL) prepared by PBS was added to the cells in each well at 37° C., and treated for 4 h. The MTT was removed by aspiration, 150 μL of DMSO was added to each well, shaking was conducted for 10 min, and an optical density (OD) value was quantified with a microplate reader (SpectraMax M2/M2e, Molecular Devices, Sunnyvale, USA) at a wavelength of 490 nm. The percentage of drug growth inhibition rate was calculated by comparing with the bFGF group. […] The experimental procedure was as follows: 10% FBS-containing medium (500 μl) was added to a lower surface of a transwell insertion chamber, the cells together with the drug were inoculated into an upper chamber, and cultured with a serum-free medium (200 μl). […]

How did the “inhibition of cancer cell viability” value turn out when “SPPRYPGGGS-NH2 [P48, Ser-Pro-Pro-Arg-Tyr-Pro-Gly-Gly-Gly-Ser-NH2]” was run?
Its value is “can significantly inhibit the viability of cancer cells”.

Source: patent US20240101600A1, “FIBROBLAST GROWTH FACTOR RECEPTOR (FGFR)-TARGETING ANTAGONISTIC SHORT PEPTIDE” (WENZHOU MEDICAL UNIVERSITY, priority 2019, published 2024)
